Measurements taken from publication PMC4305006 (Chemistry & biology, 2014).
Values after ≈ are worked out from the molar mass of the structure shown.

Tests used:
Assay type in all cases: cell-based, Mycobacterium tuberculosis
[1] = tested on: Mtb BioA under-expression strain (BioA-UE); conditions: 90% inhibition, biotin-free Sauton's medium, 14 days
[2] = tested on: Mtb H37Rv without supplemental biotin; conditions: 90% inhibition, 14 days
[3] = tested on: Mtb H37Rv with 1 μM supplemental biotin

Structure (SMILES): C=C(CCC(=O)O)c1nc2ccccc2s1 [Compound 13, 4-(benzothiazol-2-yl)pentenoic acid]
- MIC90 BioA-UE [1]: 0.7 µM (≈ 0.163 µg/mL)
- MIC90 WT -biotin [2]: 2.5 µM (≈ 0.583 µg/mL)
- shift of MIC upon addition of biotin [3]: approximately 3 fold
- MIC90 WT+biotin ([3]; 90% inhibition, Mtb H37Rv with 1 μM supplemental biotin, 14 days): 8.7 µM (≈ 2.03 µg/mL)
